Measurements as given in patent US12115209B2, “ROMO1-derived antimicrobial peptides including lysine substitution and variants thereof” (KOREA UNIVERSITY RESEARCH AND BUSINESS FOUNDATION, priority 2019, dated 2024).
No end group written: not given here.

B1: MPVAVGPYGQSQPSCFDRVKMGFVMGCAVGMAAGALFGTFSCLRIGMRGRELMGGIGKTMMQSGGTFGTFMAIGMGIRC (protein)
chain: MPVAVGPYGQSQPSCFDRVKMGFVMGCAVGMAAGALFGTFSCLRIGMRGRELMGGIGKTMMQSGGTFGTFMAIGMGIRC
modifications: Homo sapiens Romo1

What was measured:
Experiment in all cases: Minimum bactericidal concentration (MBC) assay
Type in all cases: cell-based
[1] = tested on: Methicillin-resistant Staphylococcus aureus (MRSA, ATCC 33591); details: Tables 11-21, no unit printed
Method: First, each of Pseudomonas aeruginosa (ATCC 27853) and Staphylococcus aureus (ATCC 29213) was cultured in 3% (w/v) TSB (tryptic soy broth) liquid medium at 37° C. and 200 rpm for 4 hours, and then further cultured under the same conditions for 3 hours to a concentration of 5×10^6 CFU/ml. Strain solutions were prepared by diluting each of the further cultured strains with SP (sodium phosphate; 10 mM sodium phosphate, 1% TSB) buffer to a final concentration of 2×10^5 CFU/ml. […]
(§1) In addition, 30 g/L of TS (tryptic soy) and 15 g/L of agar were dissolved in distilled water and sterilized, and then 25 ml of the solution was poured onto a 100 mm round plate and solidified at room temperature for one day or more, thereby preparing a TS agar plate. 10 μl of each reaction solution of the peptide and the strain was plated on the TS agar plate at a constant size, and incubated in an incubator at 37° C. for 18 hours, and then colony formation on the plate was checked.
Specifically, each type of bacteria was cultured in 3% (w/v) TSB (tryptic soy broth) liquid medium at 37° C. and 200 rpm for 4 hours, and then further cultured under the same conditions for 3 hours to a concentration of 5×10^6 CFU/ml. Strain solutions were prepared by diluting each of the further cultured strains with SP buffer to a final concentration of 2×10^5 CFU/ml.
(§2) Then, the KU-5878 peptide at varying concentrations (0 μg/ml to 300 μg/ml) was dispensed into each well of a 96-well microplate, and 100 μl (1×10^5 CFU/ml) of each of the prepared strain solutions was added thereto, mixed therewith, and allowed to react with the peptide in an incubator at 37° C. for 1 hour.
In addition, 10 μl of each reaction solution of the peptide and the strain was plated on the TS agar plate at a constant size, and incubated in an incubator at 37° C. for 18 hours, and then colony formation on the plate was checked.

CRPA = details: Tables 11-21, no unit printed
[2] = tested on: Pseudomonas aeruginosa (ATCC 27853); details: for MBC Pseudomonas aeruginosa: Tables 11-21, no unit printed
Method: (§3) First, each of Pseudomonas aeruginosa (ATCC 27853) and Staphylococcus aureus (ATCC 29213) was cultured in 3% (w/v) TSB (tryptic soy broth) liquid medium at 37° C. and 200 rpm for 4 hours, and then further cultured under the same conditions for 3 hours to a concentration of 5×10^6 CFU/ml. Strain solutions were prepared by diluting each of the further cultured strains with SP (sodium phosphate; 10 mM sodium phosphate, 1% TSB) buffer to a final concentration of 2×10^5 CFU/ml.
as §2, with “each” for “the KU-5878”
as §1, with “checked. The minimum bactericidal concentration was defined as the minimum concentration of the peptide at which no colony was formed, and the experimental results are shown in Table 1 below.” for “checked.”

[3] = tested on: Staphylococcus aureus (ATCC 29213); details: for MBC Staphylococcus aureus: Tables 11-21, no unit printed
Method: as §3
as §2, with “each” for “the KU-5878”
as §1, with “checked. The minimum bactericidal concentration was defined as the minimum concentration of the peptide at which no colony was formed, and the experimental results are shown in Table 1 below.” for “checked.”

Row | Molecule | MBC MRSA [1] [µg/mL] | MBC CRPA (CRPA) [µg/mL] | MBC Pseudomonas aeruginosa [2] [µg/mL] | MBC Staphylococcus aureus [3] [µg/mL] | MBC value (μg/ml) against Pseudomonas aeruginosa ([2]; ATCC 27853, reaction 37° C. 1 hour, no bovine serum) | MBC value (μg/ml) against Staphylococcus aureus ([3]; ATCC 29213, reaction 37° C. 1 hour, no bovine serum)
1 | KTMMQRGGTFGTFMAIGMGIR [KU-5878-S63R] | 25 | 20 | 20 | 15 | – | –
2 | KTMMRSGGTFGTFMAIGMGIR [KU-5878-Q62R] | 90 | 80 | 80 | 80 | – | –
3 | -KMMKKGGKFGTFMAIG-GIR [Peptide K4-d58K-d75M] | 180 | 160 | 150 | 150 | – | –
4 | KTMMASGGTFGTFMAIGMGIR [KU-5878-Q62A] | > 300 | > 300 | > 300 | > 300 | – | –
5 | KTMMQSGGTFGTFMAIGMAIR [KU-5878-G76A] | > 300 | > 300 | > 300 | > 300 | – | –
6 | KT-MQSGGTFGTFM-IG-GIR [5878-d60M, d72A, d75M] | 300 | 300 | 300 | 280 | – | –
7 | KTMMQSGGTFG-FMAIGMGIR [Peptide 5878-d69T] | 140 | 140 | 120 | 120 | – | –
8 | KTMMQSGGTFGTKMAIGMGIR [KU-5878-F70K] | > 300 | > 300 | > 300 | > 300 | – | –
9 | KTMMSSGGTFGTFMAIGMGIR [KU-5878-Q62S] | > 300 | > 300 | > 300 | > 300 | – | –
10 | KSMMQSGGTFGTFMAIGMGIR [KU-5878-T59S] | > 300 | > 300 | > 300 | > 300 | – | –
11 | KTMMQSGGTFGTFMAIGMGAR [KU-5878-I77A] | > 300 | > 300 | > 300 | > 300 | – | –
12 | KTMMQAGGTFGTFMAIGMGIR [KU-5878-S63A] | > 300 | 300 | 300 | 300 | – | –
13 | KTMMQSGGTFGKFMAIGMGIR [KU-5878-T69K] | 150 | 150 | 140 | 130 | – | –
14 | KT-MQS-GTFGTFMAIGMGIR [5878-d60M, d64G] | 110 | 100 | 100 | 100 | – | –
15 | KTMMQSGGT-GTFMAIGMGIR [Peptide 5878-d67F] | 200 | 200 | 200 | 200 | – | –
16 | KK-MKKGGKFGTFMAIG-GIR [Peptide K4-d60M-d75M] | 210 | 200 | 200 | 200 | – | –
17 | -TMMQSGGTFGTFMAIGMGIR [Peptide 5878-d58K] | > 300 | 300 | 300 | 300 | – | –
18 | KTMMQSGGTFGTF-AIGMGIR [Peptide 5878-d71M] | 300 | 300 | 250 | 250 | – | –
19 | KRMMQSGGTFGTFMAIGMGIR [KU-5878-T59R] | 30 | 30 | 30 | 25 | – | –
20 | KT-MQS-GTFGTF--IG-GIR [5878-d60M, d64G, d71M, d72A, d75M] | 200 | 200 | 200 | 200 | – | –
21 | KTMMQSGGTFGTFMA-GMGIR [Peptide 5878-4731] | > 300 | > 300 | > 300 | > 300 | – | –

Row | Molecule | MBC MRSA [1] [µg/mL] | MBC CRPA (CRPA) [µg/mL] | MBC Pseudomonas aeruginosa [2] [µg/mL] | MBC Staphylococcus aureus [3] [µg/mL] | MBC value (μg/ml) against Pseudomonas aeruginosa ([2]; ATCC 27853, reaction 37° C. 1 hour, no bovine serum) | MBC value (μg/ml) against Staphylococcus aureus ([3]; ATCC 29213, reaction 37° C. 1 hour, no bovine serum)
22 | K-MMQSGGTFGTFMAIGMGIR [Peptide 5878-d59T] | 150 | 150 | 150 | 150 | – | –
23 | KTMMQSGGTFGTFMGIGMGIR [KU-5878-A72G] | > 300 | > 300 | > 300 | > 300 | – | –
24 | KTMMQSGGTFGTFMAIGMGIK [KU-5878-R78K] | > 300 | > 300 | > 300 | > 300 | – | –
25 | KTAMQSGGTFGTFMAIGMGIR [KU-5878-M60A] | > 300 | > 300 | > 300 | > 300 | – | –
26 | KTMMQSGGTFGTFMAIGMGIA [KU-5878-R78A] | > 300 | > 300 | > 300 | > 300 | – | –
27 | KKMMKKGGKFGT-MAIGMGIR [5878 K4-d70F] | 110 | 160 | 100 | 140 | – | –
28 | KTMMQKGGTFGTFMAIGMGIR [KU-5878-S63K] | 50 | 50 | 60 | 50 | – | –
29 | KTMMKSGGTFGTFMAIGMGIR [KU-5878-Q62K] | 90 | 90 | 90 | 80 | – | –
30 | KTMMQTGGTFGTFMAIGMGIR [KU-5878-S63T] | > 300 | > 300 | > 300 | > 300 | – | –
31 | KTMMQSGGTFGTFMAIGMGIRQ [Peptide 5878-Q] | 180 | 180 | 150 | 180 | – | –
32 | KTMMQSGGTFGTFMAIGMG-R [Peptide 5878-d77I] | > 300 | > 300 | > 300 | > 300 | – | –
33 | KTMMQSGGTFGTFMAIGMGKR [KU-5878-I77K] | > 300 | > 300 | > 300 | > 300 | – | –
34 | KT-MQS-GTFGTFM-IG-GIR [5878-d60M, d64G, d72A, d75M] | 120 | 120 | 120 | 100 | – | –
35 | KTMMQSGGTFGTFMAIGMGI [KU-5877] | > 300 | > 300 | 300 | 300 | – | –
36 | KTMMQ-GGTFGTFMAIGMGIR [Peptide 5878-d63S] | 200 | 200 | 200 | 200 | – | –
37 | KTMMQSGGTFGTF-AIG-GIR [5878-d71M, d75M] | 300 | 300 | 300 | 250 | – | –
38 | KTMMQSGGKFGTFMAIGMGIR [KU-5878-T66K] | 80 | 70 | 80 | 60 | – | –
39 | KTMMQSGGTWGTFMAIGMGIR [KU-5878-F67W] | 90 | 80 | 80 | 80 | – | –
40 | KKMMKKGGKFGTFM-IG-GIR [Peptide K4-d72A-d75M] | 200 | 200 | 200 | 200 | – | –
41 | B1 | – | – | – | – | Insoluble | Insoluble
